ChEMBL document CHEMBL5154868, “Novel Selective Galectin-3 Antagonists Are Cytotoxic to Acute Lymphoblastic Leukemia” (J Med Chem, 2022)

Key:
US7 = assay: Induction of cell death in human US7 patient-derived BCP-ALL cells assessed as reduction in viable cells at 0.5 to 800 uM incubated for 24 hrs by Alamar blue assay; assay type: functional, cell-based; conditions: dose 0.5-800 µM, DDE = dose-dependent effect
Galectin-4 [1] = target: T1, Galectin-4 (Homo sapiens, UniProt P56470); assay: Binding affinity to human galectin-4N expressed in Escherichia coli BL21 using 3,3'-dideoxy-3-[4-(fluorescein-5-yl-carbonylaminomethyl)-1H-1,2,3-triazol-1-y1]-3'-(3,5-dimethoxy-benzamido)-1,1'-sulfanediyl-di-beta-D-galactopyranoside as fluorescent probe by fluorescence polarization analysis
T1 sequence (P56470 whole entry): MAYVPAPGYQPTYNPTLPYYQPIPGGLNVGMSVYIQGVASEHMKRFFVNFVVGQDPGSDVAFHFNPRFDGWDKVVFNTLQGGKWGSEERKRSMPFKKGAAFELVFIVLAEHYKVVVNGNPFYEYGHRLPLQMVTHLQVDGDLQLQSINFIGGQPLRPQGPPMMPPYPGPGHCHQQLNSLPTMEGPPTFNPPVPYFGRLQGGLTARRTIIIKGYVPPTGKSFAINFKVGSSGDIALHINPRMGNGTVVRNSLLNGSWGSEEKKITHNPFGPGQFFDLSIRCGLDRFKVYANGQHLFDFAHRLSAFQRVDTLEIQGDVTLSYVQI

[2] = Binding affinity to human galectin-1 C3S mutant by fluorescence polarization analysis
[3] = target: T2, Galectin-8 (Homo sapiens) (UniProt O00214); assay: Antagonist activity against human galectin-8N assessed as inhibition of galectin-8N at 2 mM by fluorescence polarization analysis relative to control
T2 sequence (whole entry): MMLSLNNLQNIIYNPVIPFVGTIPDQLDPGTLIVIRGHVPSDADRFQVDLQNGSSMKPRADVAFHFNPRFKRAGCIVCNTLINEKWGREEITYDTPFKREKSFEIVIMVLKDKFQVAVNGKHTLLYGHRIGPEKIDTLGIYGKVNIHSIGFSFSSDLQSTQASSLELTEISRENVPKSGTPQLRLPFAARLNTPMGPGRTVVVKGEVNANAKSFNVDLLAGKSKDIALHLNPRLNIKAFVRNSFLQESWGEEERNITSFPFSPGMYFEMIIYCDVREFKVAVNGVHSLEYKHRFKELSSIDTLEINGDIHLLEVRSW

[4] = Cytotoxicity against mouse bone marrow-derived stromal OP9 cells assessed as live cells at 100 uM measured after 3 days by trypan blue staining based assay relative to control; assay type: toxicity, cell-based; conditions: time 3 day, read-out: Activity
LAX40 [5] = assay: Cytostatic activity against human LAX40 patient-derived BCP-ALL cells co-cultured with irradiated OP9 stromal cells assessed as reduction in cell viability at 100 uM for 1 to 3 days by trypan blue staining based assay; assay type: functional; conditions: time 1-3 day, TDE = time-dependent effect
LAX40 [6] = assay: Cytotoxicity against human LAX40 patient-derived BCP-ALL cells co-cultured with irradiated OP9 stromal cells assessed as reduction in cell viability at 100 uM for 1 to 3 days by trypan blue staining based assay; assay type: functional; conditions: time 1-3 day, TDE = time-dependent effect
TXL2 = assay: Induction of cell death in human TXL2 patient-derived BCP-ALL cells assessed as reduction in viable cells at 0.5 to 800 uM incubated for 24 hrs by Alamar blue assay; assay type: functional, cell-based; conditions: dose 0.5-800 µM, DDE = dose-dependent effect
Galectin-4 [7] = target: T1, Galectin-4
[8] = Cytotoxicity against human US7 patient-derived BCP-ALL cells co-cultured with irradiated OP9 stromal cells assessed as reduction in cell viability incubated for 24 hrs by Alamar blue assay; assay type: functional, cell-based; conditions: US7, light or radiation study
[9] = target: T3, Galectin-4 (Homo sapiens) (UniProt P56470); assay: Antagonist activity against human galectin-4N expressed in Escherichia coli BL21 assessed as inhibition of galectin-4N at 2 mM using 3,3'-dideoxy-3-[4-(fluorescein-5-yl-carbonylaminomethyl)-1H-1,2,3-triazol-1-y1]-3'-(3,5-dimethoxy-benzamido)-1,1'-sulfanediyl-di-beta-D-galactopyranoside as fluorescent probe by fluorescence polarization analysis relative to control
T3 sequence (whole entry): T1 sequence (P56470 whole entry)

Galectin-3 = Galectin-3 (Homo sapiens, UniProt P17931)
Description: Binding affinity to human galectin-3 using 2-(fluorescein-5/6-yl-carbonylamino)-ethyl 2-acetamido-2-deoxy-alpha-D-galactopyranosyl-(1-3)-[alpha-L-fucopyranosyl-(1-2)]-beta-D-galactopyranosyl-(1-4)-beta-D-glucopyranoside by fluorescence polarization analysis

Galectin-1 = Galectin-1 (Homo sapiens, UniProt P09382); assay: Binding affinity to human galectin-1 using 3,3'-dideoxy-3-[4-(fluorescein-5-yl-carbonylaminomethyl)-1H-1,2,3-triazol-1-y1]-3'.(3,5-dimethoxy-benzamido)-1,1'-sulfanediyl-di-beta-D-galactopyranoside as fluorescent probe by fluorescence polarization analysis
Galectin-8 [10] = target: T4, Galectin-8 (Homo sapiens, UniProt O00214); assay: Binding affinity to human galectin-8C expressed in Escherichia coli BL21(DE3) using 3,3'-dideoxy-3-[4-(fluorescein-5-yl-carbonylaminomethyl)-1H-1,2,3-triazol-1-y1]-3'-(3,5-dimethoxy-benzamido)-1,1'-sulfanediyl-di-beta-D-galactopyranoside as fluorescent probe by fluorescence polarization analysis
T4 sequence (O00214 whole entry): T2 sequence (whole entry)

Galectin-8 [11] = target: T4, Galectin-8; assay: Binding affinity to human galectin-8N using 3,3'-dideoxy-3-[4-(fluorescein-5-yl-carbonylaminomethyl)-1H-1,2,3-triazol-1-y1]-3'.(3,5-dimethoxy-benzamido)-1,1'-sulfanediyl-di-beta-D-galactopyranoside as fluorescent probe by fluorescence polarization analysis

Sequence of Galectin-1 (P09382 whole entry): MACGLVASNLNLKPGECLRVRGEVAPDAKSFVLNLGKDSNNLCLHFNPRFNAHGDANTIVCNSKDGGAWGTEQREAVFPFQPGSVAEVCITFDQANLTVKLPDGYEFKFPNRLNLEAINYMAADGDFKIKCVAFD
Sequence of Galectin-3 (P17931 whole entry): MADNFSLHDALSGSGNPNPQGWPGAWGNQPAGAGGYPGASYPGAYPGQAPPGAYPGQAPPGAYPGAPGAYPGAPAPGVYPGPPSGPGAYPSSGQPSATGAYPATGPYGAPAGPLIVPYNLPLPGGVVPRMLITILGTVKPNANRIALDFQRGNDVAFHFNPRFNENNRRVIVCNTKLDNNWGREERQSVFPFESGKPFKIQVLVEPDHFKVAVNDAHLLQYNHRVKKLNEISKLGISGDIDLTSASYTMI

Row | Compound | Kd (Galectin-4 [1]) [µM] | Kd [2] [µM] | inhibition [3] [%] | Kd (Galectin-4 [7]) [µM] | inhibition [9] [%] | Kd (Galectin-3) [µM] | Kd (Galectin-1) [µM] | Kd (Galectin-8 [10]) [µM] | Kd (Galectin-8 [11]) [µM] | Activity (US7) | viability at 72 h, 100 µM [4] [%] | Activity (LAX40 [5]) | Activity (LAX40 [6]) | Activity (TXL2) | IC50 [8] [µM]
1 | CO[C@@H]1O[C@H](CO)[C@H](O)[C@H](OC(=O)c2ccc(C)cc2)[C@@H]1OC(=O)c1ccccc1[N+](=O)[O-] | 440 | 1800 | < 20 | 48 | – | – | – | – | – | Dde | ≥ 65 | Tde | Tde | Dde | 307
2 | CO[C@@H]1O[C@H](CO)[C@H](O)[C@H](OC(=O)c2ccc(C)cc2)[C@@H]1OC(=O)c1ccc(Cl)cc1[N+](=O)[O-] | 250 | – | – | 18 | – | – | 1400 | 450 | 4000 | – | – | – | – | – | 128

The next lines start with results.

Row | Kd (Galectin-4 [1]) [µM] | Kd [2] [µM] | inhibition [3] [%] | Kd (Galectin-4 [7]) [µM] | inhibition [9] [%] | Kd (Galectin-3) [µM] | Kd (Galectin-1) [µM] | Kd (Galectin-8 [10]) [µM] | Kd (Galectin-8 [11]) [µM] | Compound | Activity (US7) | viability at 72 h, 100 µM [4] [%] | Activity (LAX40 [5]) | Activity (LAX40 [6]) | Activity (TXL2) | IC50 [8] [µM]
3 | – | – | < 20 | 2900 | < 20 | 420 | 4100 | – | – | CO[C@@H]1O[C@H](CO)[C@H](O)[C@H](OC(=O)c2ccc(C)cc2)[C@@H]1OC(C)=O | – | – | – | – | – | –
4 | 1400 | – | < 20 | 40 | – | – | 4000 | 1900 | – | CO[C@@H]1O[C@H](CO)[C@H](O)[C@H](OC(=O)c2ccc(C)cc2)[C@@H]1OC(=O)c1ccc(C(F)(F)F)cc1[N+](=O)[O-] | – | – | Tde | Tde | – | 83
5 | 710 | – | < 20 | 6.5 | – | – | 2100 | 900 | – | CO[C@@H]1O[C@H](CO)[C@H](O)[C@H](OC(=O)c2ccc(C)cc2)[C@@H]1OC(=O)c1ccc(F)cc1[N+](=O)[O-] | – | – | – | – | – | 150
6 | 1400 | – | < 20 | 630 | – | 130 | 2700 | 4000 | – | CO[C@@H]1O[C@H](CO)[C@H](O)[C@H](OC(=O)c2ccc(C)cc2)[C@@H]1OC(=O)c1cccc([N+](=O)[O-])c1 | – | – | – | – | – | 138
